# Measurements: a melting point compilation (Tetko et al.; mined from patent text by program, amines drawn as free bases though some values may be those of a salt)
row,melting point,Compound
1,72 to 76 °C,CCCCCNC(=S)CC(=O)O
2,149 to 151 °C,Cc1cccc(C(=O)Nc2c[nH]nc2C(=O)NCCC#N)c1
3,159 to 161 °C,CC1(C)OC(=O)C(Oc2cc(F)cc(F)c2)=C1c1ccc(S(C)(=O)=O)cc1
4,67 to 68 °C,c1ccc(N=c2sc3ccccc3s2)cc1
5,77 to 78 °C,CC(C)(C)OC(=O)NCCCCCCNS(=O)(=O)c1ccc(Oc2ccccc2)cc1
6,207 to 208 °C,COc1ccc(C(=O)N2CCOc3ccc(C4=NNC(=O)CC4)cc32)cc1OC
7,66 to 68 °C,Cc1cc(OCCC[Si](C)(C)C)c(Cl)cc1[N+](=O)[O-]
8,225 to 226 °C,NC(=O)c1ccccc1N1CCc2cc(Cl)cc([N+](=O)[O-])c21
9,86 °C,CC=CCC1C(=O)c2cc(OC)c(Cl)cc2C1(C)C (racemic)
10,176 to 178 °C,Cc1cc(N=CN(C)C)nc(-c2ccc([N+](=O)[O-])o2)n1
11,118 to 120 °C,CC(C)CC(NC(=O)OCc1ccccc1)C(=O)Nc1nncs1 (racemic)
12,331 to 334 °C,O=C(O)CCC(=O)N1CCN(c2cc3c(cc2F)c(=O)c(C(=O)O)c2sccn23)CC1
13,103 to 104 °C,COc1ccc2c(c1)c(CC(=O)OC(C)(C)C)c(C)n2C(=O)c1ccc(Cl)cc1
14,213 to 215 °C,N#Cc1cc2c(c3ccc(=O)[nH]c13)OC(CN=[N+]=[N-])C2 (centres undefined)
15,164 to 166 °C,"CC(OC(=O)C12CC3CC(CC(C3)C1)C2)c1ccncc1 (single isomer, unassigned; (-))"
16,92 to 93 °C,COC(=O)c1ccc(NCCCCCCCCCCCCCCCCBr)cc1
17,76 to 78 °C,COc1cccc(Oc2ncccc2C=O)c1
18,105 to 108 °C,CC1(C)CC(=NO)c2cc(OCc3ccccc3)ccc2O1
19,193 to 194 °C,CCCC12CCC(=O)C=C1c1c(cc(OCC(=O)O)c(Cl)c1Cl)CC2 (centres undefined)
20,148 to 152 °C,CCc1ccc2c(O)ccnc2c1
21,198 to 199 °C,CSc1ccc(-n2cnc3ccc(-c4nnc(C5CC5)o4)cc32)cc1
22,233 °C,CCOC(=O)C1=C(C)N(Cc2ccccc2[N+](=O)[O-])C2=C(C(=O)OC2)C1c1ccccc1C(F)(F)F (centres undefined)
23,100 °C,Cc1cc(CNC(=O)c2cc(-c3ccc(C(C)(C)C)cc3)[nH]n2)ccc1OC(C)(C)C(=O)O
24,116 to 120 °C,O=C1c2ccccc2COc2ccc(CCN3CCC(n4c(=O)[nH]c5ccccc54)CC3)cc21

row,melting point,Compound
1,142 to 143 °C,O=C(CCl)CC(=O)Nc1ccccc1
2,98 to 99 °C,CCOC(=O)c1cc(-c2ccc(F)cc2)sc1N
3,193 to 195 °C,CC(C)c1cc(C(C)C)c(CC(=O)NS(=O)(=O)Oc2c(C(C)C)cc(CNC(=O)CN)cc2C(C)C)c(C(C)C)c1
4,166 to 167 °C,CCOC(=O)c1[nH]c(C)c2c1CCC2
5,128 °C,Clc1ccc(C(=Cc2ccc(Cl)cc2Cl)CBr)cc1
6,236 to 238 °C,O=C(Cc1ccccc1)NCc1cccc2c1CN(C1CCC(=O)NC1=O)C2=O (centres undefined)
7,122 °C,O=C(c1ccc(-c2ccc(OCCCN3CCCCC3)cc2)cc1)N1CCCCC1
8,133 to 135 °C,CCCc1nc2cnc3ccccc3c2n1CCCCNS(C)(=O)=O
9,140 to 141 °C,CCCCOC(=O)c1c(Cn2ccnc2)nc2cc(OC)c(OC)cc2c1-c1ccc(OC)c(OC)c1
10,177 to 178 °C,O=C1N[C@H](Cc2cccc(C(F)(F)F)c2)[C@H](c2ccc(F)cc2)O1 (racemic)
11,227 to 232 °C,O=C(NNC(=O)c1c(F)c(F)c(F)c(F)c1F)c1cc(Cl)ccc1Cl
12,153 to 155 °C,CN1CCC(Nc2ccc([N+](=O)[O-])cc2)CC1
13,174 °C,Cc1ccc(C(=O)O)nn1
14,135 to 137 °C,CN(C(CCn1c(=O)[nH]c2cscc2c1=O)C(=O)NO)S(=O)(=O)c1ccc(Oc2ccccc2)cc1 (centres undefined)
15,191 °C,COc1cccc2c(=O)nc(-c3ccccn3)sc12
16,170 °C,O=C(O)Cc1ccc2nc(-c3ccccc3)oc2c1
17,98 to 101 °C,CCCCOCCOc1ccc(-c2ccc3c(c2)C=C(C(=O)Nc2ccc(SCc4n[nH]c(=O)n4CCC)cc2)CCN3CC(C)C)cc1
18,204 to 205 °C,CC(C)(C)NCC(O)COc1cccc2c1CNC(=O)N2 (centres undefined)
19,147 to 148 °C,O=C(O)CCCc1cc(C(c2cc(F)ccc2F)S(=O)(=O)c2ccc(Cl)cc2)c(Cl)cn1 (centres undefined)
20,38 to 41 °C,Nc1c(Cl)cc(C(O)CNCCCCCCOCCCc2ccccn2)cc1Cl (centres undefined)
21,52 to 55 °C,CCCCCCCCCCCCCCCCCCOc1cccc(CC(=O)N(CC(=O)OC)CC(=O)OC)c1
22,54 to 55.5 °C,Cc1cccc(N(C)C(=O)COc2cc(C(F)(F)F)no2)c1
23,184 °C,O=C(NC(Cc1ccccc1)C(=O)O)c1ccc(-c2cnc(OCc3ccccc3)nc2)cc1 (centres undefined)
24,192 to 194 °C,O=C(Nc1ccc(Cl)cn1)c1cc(Cl)ccc1NCC1CCN(C2CCOCC2)CC1

row,melting point,Compound
1,120 to 121 °C,Cc1oc(-c2ccccc2)nc1COc1cccc(CSc2cccc(CCC(=O)O)c2)c1
2,135 to 140 °C,CN(CCCCCCCCNC(=O)NCCSCc1csc(NC(=N)N)n1)CCC(c1ccc(Cl)cc1)c1ccccn1 (centres undefined)
3,215 to 216 °C,NC(=O)NN=Cc1ccc(OC2CCCCCC2)cc1
4,168 to 169 °C,CCOC(=O)OC1C(=O)N(CCN(C)C)c2ccc3ccccc3c2SC1c1ccc(OC)cc1 (centres undefined)
5,216 to 218 °C,CNc1nc2ccccc2c2c1ncn2C
6,320 to 324 °C,CN(C)c1noc(-c2ccc3c(c2)c2cc(-c4ccc(Cl)cc4Cl)c(=O)n(C)c2n3C)n1
7,181 to 182 °C,O=c1c2ccccc2nc(-c2sc(Nc3ccccc3)nc2-c2ccccc2)n1-c1ccccc1
8,277 to 279 °C,N#Cc1nc(-c2cc(Cl)cc(Cl)c2Cl)c(N)nc1N
9,143 to 144 °C,COc1cc(Nc2nccc(-c3ccc(CN)cc3)n2)cc(OC)c1OC
10,122 to 124 °C,CCOC(=O)c1cc(-c2ccc(Cl)c(Cl)c2)nn1C
11,105 to 108 °C,Cc1cccc(N)c1[N+](=O)[O-]
12,185 to 186 °C,Cc1cc2c(cc1O)OCCC2=O
13,> 250 °C,COc1ccc(-c2cnc3cc4[nH]ncc4cc3n2)cc1F
14,61 to 65 °C,Nc1cccc(NCCCN2CCOCC2)c1
15,68 to 69 °C,CC(C)C1Cc2cnc3c(c2C1=O)CCO3 (centres undefined)
16,155 to 156 °C,CCCc1nc2ccc(C(=O)NCc3ccc(N(C)C)cc3)cc2n1Cc1ccccc1Cl
17,153 to 155 °C,COC(=O)c1ccc(NC(C)=O)cc1NC(=O)NC(C)C
18,128 to 129 °C,CC(C)(C)OC(=O)C(C)(C)N1COC(CCl)=C(c2ccccc2)C1=O
19,62 to 65 °C,OC1CCCC1Oc1ccc(Oc2ccccc2)cc1 (centres undefined)
20,214 to 216 °C,CS(=O)(=O)c1cccc(Nc2cc(-c3ccccc3O)ncn2)c1
21,160 to 162 °C,CN1CCN(c2cccc3c(S(=O)(=O)c4ccccc4)c[nH]c23)CC1
22,178 to 180 °C,CCCCNc1nnc(NCCCC)c2cc3c(OC)cccc3cc12
23,45 to 50 °C,CCOC(=O)CC(=O)c1ccc(-c2ccc(Cl)cc2)cc1
24,85 to 97 °C,CCCNC(=O)C(CC)Cc1ccc2c(c1)c(Cc1ccc(C(=O)O)cc1OC)cn2CCC (centres undefined)

row,melting point,Compound
1,224 to 225 °C,O=C(O)COc1cccc2c1Cc1sc(SC(c3ccccc3)c3ccccc3)nc1-2
2,100 to 105 °C,CC(C)(C)OC(=O)N1CCNC[C@H]1C(c1ccccc1)c1ccccc1
3,225 to 226 °C,CCCn1cc2c(n1)-c1c(nc3ccccc3c1N)CC2
4,216 to 217 °C,COc1cc2ncnc(N3CCN(C(=S)NCc4ccc(C(F)(F)F)cc4)CC3)c2cc1OC
5,45 to 50 °C,CC1(C)SCC(CO)S1 (centres undefined)
6,54 to 65 °C,CCCCC[C@H](O)/C=C/[C@@H]1[C@H]2Cc3cccc(OC(C)=O)c3C[C@H]2C[C@H]1O
7,79 to 81 °C,CCCCCCCCOc1ccc(-n2nc3ccc(C(F)(F)F)cc3n2)c(O)c1
8,124 to 125 °C,OCc1cccc2cc3ccccc3cc12
9,218 to 225 °C,COc1cc2c(cc1Nc1ncc(Cl)c(Nc3ccccc3S(=O)(=O)N(C)C)n1)CCN(CC(=O)N(C)C)CC2
10,200 °C,COCCO[C@@H]1c2ccc3c(nc(C)n3C)c2O[C@H](c2ccccc2)[C@H]1OC(=O)COC
11,264 °C,NS(=O)(=O)c1cccc(-c2cc(-c3nc(-c4ccc(C(F)(F)F)nc4)cc(C(F)F)n3)ccn2)c1
12,104 to 106 °C,O=C(CC[C@H](NC(=O)OCc1ccccc1)C(=O)OCc1ccccc1)ON1C(=O)CCC1=O
13,100 to 102 °C,O=[N+]([O-])c1nccnc1NCC(O)CO (centres undefined)
14,21.8 °C,C=CCCCc1cnc(-c2ccc(F)cc2)nc1
15,157 to 158 °C,COc1ccc(-c2nc(-c3ncc4c(n3)CCCC4)ccc2C)nc1
16,87 to 90 °C,CC(C(=O)c1ccc(OCc2ccccc2)c(OCc2ccccc2)c1)N1CCC(n2c(=O)[nH]c3ccccc32)CC1 (centres undefined)
17,223 to 228 °C,COc1ccc(N2C(=O)N(c3cccc(C#N)c3)c3nc(Nc4ccccc4)ncc3C2C)c(F)c1 (centres undefined)
18,> 300 °C,N#Cc1cnc2c(sc3ccc([N+](=O)[O-])cc32)c1Nc1cccc(Br)c1
19,128 to 129 °C,NC1=CN(Cc2ccc(Cl)cc2)CN=C1
20,222 to 226 °C,CCCCN(CCCC)c1ccc(C=CC2=C(C#N)C(=C(C#N)C#N)OC2(C)C)c(OC)c1
21,150 to 152 °C,O=C(NC(CN1CCC(=C2c3ccccc3CCc3ccccc32)CC1)C(=O)O)OCc1ccccc1 (centres undefined)

row,Compound,melting point
1,NC(=O)O[C@@](c1cc(F)cc(Cl)c1)(c1cc2cn[nH]c2cc1F)[C@@H]1CCCCN1,220 °C
2,C=CCOc1ccc(C#N)c(Cl)c1,50 to 52 °C
3,OCc1cn2c(n1)CN=C(c1ccccc1F)c1cc(Cl)ccc1-2,196 to 200 °C
4,CNC(=S)N1CCC23C=C[C@H](O)CC2Oc2c(OC)cc(Br)c(c23)C1 (some centres undefined),183 to 185 °C
5,O=C(O)c1ncn2c1CN=C(c1ccccc1)c1cc(Cl)ccc1-2,268 to 270 °C
6,N#CC1(Nc2ccccc2)CCN(C2c3ccccc3-c3ccccc32)CC1,165 °C
